Laboratory results taken from patent US8946478B2, “Benzamide derivative with anticancer activity and preparation method and use thereof” (Zhejiang Hisun Pharmaceutical Co., Ltd., priority 2010, dated 2015).

Tests used:
[1] = system: human colon cancer cell strain HCT-116; experiment: In vitro SRB tumor cell growth inhibition (GI50); type: cell-based; conditions: HCT-116 cells
Experimental: (§1) Human colon cancer cell strains (Colo205 and HCT-116), human breast cancer cell strains (MCF-7 and MDA-MB435), human lung cancer cell strains (A549, 95D and NCI460), human ovarian cancer cell strains (OVCAR-5, OVCAR-8, HO8910 and SKOV-3), human leukemia (HL-60 and K562), human prostate cancer (DU145 and BXPC-3), human uterine cancer (Hela), human pancreatic cancer (PANC-1), human hepatoma (HepG 2) were all obtained from ATCC. Colo205, HL-60, K562 cells were cultured in RPMI 1640 containing 2 mM/L glutamine, 10% FBS, 1.0 mM sodium pyruvate. HCT-116, MCF-7, A549, 95D, HO8910, NCI460, OVCAR-5, OVCAR-8, DU145, BXPC-3, Hela, PANC-1, HepG2 cells were cultured in DMEM containing 2 mM/L glutamine, 10% FBS. MDA-MB435 cells were cultured in L-15 containing 2 mM/L glutamine, 10% FBS. SKOV-3 cells were cultured in McCoy's containing 2 mM/L glutamine, 10% FBS. Colo205, HL-60 and K562 cells were seeded in 96-well plates, 150 μL/well and 8000 cells/well, and the 96-well plates were pre-incubated in an incubator at 37° C. with 5% CO2, 100% relative humidity for 24 hours. HCT-116, MCF-7, NCI460, OVCAR-5, OVCAR-8, Hela, HepG 2 and MDA-MB435 cells were seeded in 96-well plates, 5000 cells/well; A549, 95D, HO8910, DU145, BXPC-3, PANC-1 and SKOV-3 cells were seeded in 96-well plates, 10000 cells/well, and the 96-well plates were pre-incubated in an incubator at 37° C. with 5% CO2, 100% relative humidity for 24 hours, to allow the cells to adhere.
(§2) 50 μL of pre-cooled 50% (mass/volume) TCA was added into the time zero control wells for each cell strain to fix the cells. To other wells, 50 μL of various concentrations of compounds were added, and maintained for 48 h, wherein each drug concentration was in triplicate, and there were blank control wells (cell culture medium without cells), drug-free control wells (with no drugs but the same volume of complete medium) and positive drug BSI-201 control wells, and the plates were incubated in an incubator at 37° C. with 5% CO2, full humidity (100% relative humidity) for 48 hours
(§3) 50 μL pre-cooled 50% (mass/volume) TCA was added onto the surface of the culture medium to fix the cells, which was then placed at 4° C. for 1 h. The supernatant was removed and each well was washed with deionized water for 5 times to remove TCA, serum proteins, etc. After dried in the air, about 100 μL enough amount of 0.4% SRB (formulated with 1% acetic acid) was added into each well, and was placed at room temperature for 20 to 30 min. Liquid in each well was discarded and each well was rapidly washed with 1% acetic acid for five times, to remove unbound dye until the unbound dye was completely rinsed clean. After dried in the air until the moisture was invisible, each well was added 200 μL Tris base to dissolve, shaken on a plate oscillator for 5 min or mixed by beating up and down with a pipette tip, and then measured on the multi-function instruction (M5 Detection System, MD Group Ltd.) with a detection wavelength of 515 nm, zero adjusted with 690 nm blank control.
(§4) The dose-response curve was plotted by XL-fit to determine the GI50 value.

[2] = system: human breast cancer cell strain MCF-7; experiment: In vitro SRB tumor cell growth inhibition (GI50); type: cell-based; conditions: MCF-7 cells
Experimental: as §1, §2, §3, §4

[3] = system: human lung cancer cell strain NCI-460; experiment: In vitro SRB tumor cell growth inhibition (GI50); type: cell-based; conditions: NCI-460 cells
Experimental: as §1, §2, §3, §4

human leukemia HL-60 = experiment: In vitro SRB tumor cell growth inhibition (GI50); type: cell-based; conditions: Homo sapiens, HL-60, 48 h, HL-60 cells
Experimental: as §1, §2, §3, §4

18 tumor cell strains = experiment: In vitro efficacy screening, summary over the tumor cell strains; type: cell-based, human; conditions: in vitro screening; for inhibitory effects on tumor cell proliferation (in words): BSI-201 as positive drug
Experimental: as §1, §2, §3, §4

[4] = system: human breast cancer cell strain MDA-MB435; experiment: In vitro SRB tumor cell growth inhibition (GI50); type: cell-based; conditions: MDA-MB435 cells
Experimental: as §1, §2, §3, §4

[5] = system: human lung cancer cell strain 95D; experiment: In vitro SRB tumor cell growth inhibition (GI50); type: cell-based; conditions: 48 h, 95D cells
Experimental: as §1, §2, §3, §4

[6] = system: human ovarian cancer cell strain OVCAR-8; experiment: In vitro SRB tumor cell growth inhibition (GI50); type: cell-based; conditions: OVCAR-8 cells
Experimental: as §1, §2, §3, §4

[7] = system: human prostate cancer DU145; experiment: In vitro SRB tumor cell growth inhibition (GI50); type: cell-based; conditions: Homo sapiens, DU-145, 48 h, DU145 cells
Experimental: as §1, §2, §3, §4

SMILES	GI50 ([1]; Homo sapiens, HCT-116, 48 h) [µM]	GI50 ([2]; Homo sapiens, MCF7, 48 h) [µM]	GI50 (human leukemia HL-60) [µM]	GI50 ([3]; Homo sapiens, NCI-460, 48 h) [µM]	efficacy in inhibition of tumor cell proliferation, graded in words against I-1 (18 tumor cell strains)	inhibitory effects on tumor cell proliferation (in words) (18 tumor cell strains)	further results
C#Cc1ccc(C(=O)NC(=O)OCCC)cc1[N+](=O)[O-] [Compound I-4, N-propoxycarbonyl-4-ethynyl-3-nitrobenzamide]					good effects on inhibition of tumor cell proliferation	have inhibitory effects on tumor cell proliferation	GI50 ([4]; Homo sapiens, MDA-MB-435, 48 h): 12.6 µM
C#Cc1ccc(C(=O)N2CCOCC2)cc1[N+](=O)[O-] [Compound I-22, (4-ethynyl-3-nitrophenyl)(morpholin-4-yl)ketone]		13.4				have inhibitory effects on tumor cell proliferation	GI50 ([4]; Homo sapiens, MDA-MB-435, 48 h): 6.53 µM
C#Cc1ccc(C(N)=O)cc1N=O [Compound I-28, 4-ethynyl-3-nitrosobenzamide]		9.78			good effects on inhibition of tumor cell proliferation	have inhibitory effects on tumor cell proliferation	GI50 ([5]; Homo sapiens, 95-D): 18.1 µM; GI50 ([6]; Homo sapiens, OVCAR-8, 48 h): 17.2 µM
CC#Cc1ccc(C(N)=O)cc1[N+](=O)[O-] [Compound I-12, 4-(1-propynyl)-3-nitrobenzamide]			34.6		good effects on inhibition of tumor cell proliferation	have inhibitory effects on tumor cell proliferation	
C#Cc1ccc(C(=O)N(CCC)CCC)cc1[N+](=O)[O-] [Compound I-15, N,N-dipropyl-4-ethynyl-3-nitrobenzamide]	12	9.92		17	slightly lower than that of I-1	have inhibitory effects on tumor cell proliferation	GI50 [7]: 2.37 µM
C#Cc1ccc(C(=O)N2CCN(C)CC2)cc1[N+](=O)[O-].Cl [Compound I-29, (4-ethynyl-3-nitrophenyl)(4-methylpiperazin-1-yl)ketone hydrochloride]					slightly lower than that of I-1	have inhibitory effects on tumor cell proliferation	GI50 ([5]; hydrochloride): 15.8 µM; GI50 ([1]; 48 h, hydrochloride): 14.3 µM; GI50 ([6]; 48 h, hydrochloride): 29.3 µM; GI50 ([4]; 48 h, hydrochloride): 8.44 µM; GI50 ([2]; 48 h, hydrochloride): 11.8 µM; GI50 ([3]; 48 h, hydrochloride): 28.2 µM
C#Cc1ccc(C(=O)N2CCC2)cc1[N+](=O)[O-] [Compound I-25]	10.9	9.5		27.7			GI50 ([6]; Homo sapiens, OVCAR-8, 48 h): 14.4 µM
N#Cc1ccc(C(N)=O)cc1[N+](=O)[O-] [Compound I-8, 4-cyano-3-nitrobenzamide]	13				good effects on inhibition of tumor cell proliferation	have inhibitory effects on tumor cell proliferation	GI50 ([4]; Homo sapiens, MDA-MB-435, 48 h): 32.2 µM
C#Cc1ccc(C(=O)N(CCCC)CCCC)cc1[N+](=O)[O-] [Compound I-16, N,N-dibutyl-4-ethynyl-3-nitrobenzamide]	12.9	8.21	1.27	15.5	good effects on inhibition of tumor cell proliferation	have inhibitory effects on tumor cell proliferation	
C#Cc1ccc(C(=O)NC(=O)OCCCC)cc1[N+](=O)[O-] [Compound I-5, N-butoxycarbonyl-4-ethynyl-3-nitrobenzamide]	17.9	10.1		20.1	good effects on inhibition of tumor cell proliferation	have inhibitory effects on tumor cell proliferation	

The next lines start with results.

GI50 ([1]; Homo sapiens, HCT-116, 48 h) [µM]	GI50 ([2]; Homo sapiens, MCF7, 48 h) [µM]	GI50 (human leukemia HL-60) [µM]	SMILES	GI50 ([3]; Homo sapiens, NCI-460, 48 h) [µM]	efficacy in inhibition of tumor cell proliferation, graded in words against I-1 (18 tumor cell strains)	inhibitory effects on tumor cell proliferation (in words) (18 tumor cell strains)	further results
9.01	9.59	5.15	C#Cc1ccc(C(=O)NCCCC)cc1[N+](=O)[O-] [Compound I-19, N-butyl-4-ethynyl-3-nitrobenzamide]	10.1	good effects on inhibition of tumor cell proliferation	have inhibitory effects on tumor cell proliferation	
	25.3		C#Cc1ccc(C(=O)NC(=O)c2ccccc2)cc1[N+](=O)[O-] [Compound I-13, N-benzoyl-4-ethynyl-3-nitrobenzamide]		good effects on inhibition of tumor cell proliferation	have inhibitory effects on tumor cell proliferation	GI50 ([4]; Homo sapiens, MDA-MB-435, 48 h): 6.24 µM
18.3	12.3	3.78	C#Cc1ccc(C(=O)N(C)C)cc1[N+](=O)[O-] [Compound I-10, N,N-dimethyl-4-ethynyl-3-nitrobenzamide]	24.1	good effects on inhibition of tumor cell proliferation	have inhibitory effects on tumor cell proliferation	
22.5	6.7	9.71	C#Cc1ccc(C(=O)NC)cc1[N+](=O)[O-] [Compound I-9, N-methyl-4-ethynyl-3-nitrobenzamide]	11.5	good effects on inhibition of tumor cell proliferation	have inhibitory effects on tumor cell proliferation	
12.1	10.7	2.35	C#Cc1ccc(C(=O)NC(C)=O)cc1[N+](=O)[O-] [Compound I-11, N-acetyl-4-ethynyl-3-nitrobenzamide]	13.4	good effects on inhibition of tumor cell proliferation	have inhibitory effects on tumor cell proliferation	
	31.6		CNC(=O)c1ccc(C#N)c([N+](=O)[O-])c1 [Compound I-27, N-methyl-4-cyano-3-nitrobenzamide]		good effects on inhibition of tumor cell proliferation	have inhibitory effects on tumor cell proliferation	GI50 ([4]; Homo sapiens, MDA-MB-435, 48 h): 29.3 µM
9.45	6.29	4.86	C#Cc1ccc(C(=O)NCCC)cc1[N+](=O)[O-] [Compound I-18, N-propyl-4-ethynyl-3-nitrobenzamide]	7.09	good effects on inhibition of tumor cell proliferation	have inhibitory effects on tumor cell proliferation	
